The values that follow come from patent US9975854B2, “Benzomorphan analogs and use thereof” (Purdue Pharma L.P., priority 2014, dated 2018).

For test [1], the target named is T1, μ-opioid receptor (Homo sapiens (Human), UniProt P35372). Nature of the test: μ-opioid receptor [35S]GTPγS functional assay, HEK-293 or CHO cells. It is filed as biochemical. Particulars: HEK-293 or CHO cells; for EC50: read-out: GTPγS μ EC50; for Emax: relative to DAMGO. The procedure, abridged:
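Membranes from recombinant human μ-opioid receptor cells (HEK-293, CHO or U-2 OS) at 0.026 mg/mL with saponin, […] and 0.20 nM [35S]GTPγS in HEPES buffer pH 7.4, incubated 30 min at about 25 °C; bound radioactivity by filtration. EC50 from sigmoidal fit; Emax relative to DAMGO.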
(In general: Binding of GTPγS marks nucleotide exchange on a G protein.)

Test [2] deals with T2, κ-opioid receptor (Homo sapiens (Human), UniProt P41145). Nature of the test: κ-opioid receptor [35S]GTPγS functional assay, U-2 OS cells. Conditions: for Emax: relative to U69,593. It counts as biochemical. As for the experimental part:
(§1) Functional [^35S]GTPγS binding assays were conducted as follows. K opioid receptor membrane solution was prepared by sequentially adding final concentrations of 0.026 μg/μl κ membrane protein (in-house), 10 μg/mL saponin, 3 μM GDP and 0.20 nM [^35S]GTPγS to binding buffer (100 mM NaCl, 10 mM MgCl2, 20 mM HEPES, pH 7.4) on ice. The prepared membrane solution (190 μl/well) was transferred to 96-shallow well polypropylene plates containing 10 μl of 20× concentrated stock solutions of agonist prepared in DMSO. Plates were incubated for 30 min at a temperature of about 25° C. with shaking. Reactions were terminated by rapid filtration onto 96-well Unifilter GF/B filter plates (Perkin Elmer, Shelton, Conn.) using a 96-well tissue harvester (Packard) and followed by three filtration washes with 200 μl ice-cold binding buffer (10 mM NaH2PO4, 10 mM Na2HPO4, pH 7.4). Filter plates were subsequently dried at 50° C. for 2-3 hours. Fifty μl/well scintillation cocktail (Perkin Elmer, Shelton, Conn.) was added and plates were counted in a Packard Top-Count for 1 min/well.
κ GTP EC50 is the concentration of a compound providing 50% of the maximal response for the compound at a κ receptor.
κ GTP Emax (%) is the maximal effect elicited by a compound relative to the effect elicited by U69,593.
(§2) In TABLE 5, activity response of certain Compounds of the Invention to the μ- and κ-opioid receptors was determined as described above for functional assays using U-2 OS cells.

Test [3] has as its target T1, μ-opioid receptor. Nature of the test: μ-opioid receptor [35S]GTPγS functional assay, U-2 OS cells. It is filed as biochemical. Particulars: for Emax: relative to DAMGO. As for the experimental part:
[^35S]GTPγS functional assays were conducted using freshly thawed μ-receptor membranes prepared in-house from a cell line expressing recombinant opioid receptor in a HEK-293, CHO or U-2 OS cell background, or purchased from a commercial source (Perkin Elmer, Shelton, Conn.; or DiscovRx, Fremont, Calif.). Assay reactions were prepared by sequentially adding the following reagents to binding buffer (100 mM NaCl, 10 mM MgCl2, 20 mM HEPES, pH 7.4) on ice (final concentrations indicated): membrane protein (0.026 mg/mL), saponin ([…]), GDP ([…]) and [^35S]GTPγS (0.20 nM; Perkin Elmer, Shelton, Conn.). The prepared membrane solution (190 μl/well) was transferred to 96-shallow well polypropylene plates containing 10 μl of 20× concentrated stock solutions of the agonist [D-Ala^2, N-methyl-Phe^4 Gly-ol^5]-enkephalin (DAMGO) prepared in dimethyl sulfoxide (DMSO). Plates were incubated for 30 min at about 25° C. with shaking. Reactions were terminated by rapid filtration onto 96-well Unifilter GF/B filter plates (Perkin Elmer, Shelton, Conn.) using a 96-well tissue harvester (Perkin Elmer, Shelton, Conn.) followed by three filtration washes with 200 μl of ice-cold wash buffer (10 mM NaH2PO4, 10 mM Na2HPO4, pH 7.4). Filter plates were subsequently dried at 50° C. for 2-3 hr. BetaScint scintillation cocktail (Perkin Elmer, Shelton, Conn.) was added (50 μl/well) and plates were counted using a Packard Top-Count for 1 min/well. Data were analyzed using the sigmoidal dose-response curve fitting functions in GraphPad PRISM v. 3.0, or an in-house function for non-linear, sigmoidal dose-response curve-fitting.
μ GTP EC50 is the concentration of a compound providing 50% of the maximal response for the compound at a μ-opioid receptor.
μ GTP Emax (%) is the maximal effect elicited by a compound relative to the effect elicited by DAMGO, a standard p agonist. Generally, the μ GTP Emax (%) value measures the efficacy of a compound to treat or prevent pain or other Conditions.
as §2

Test [4] has as its target T2, κ-opioid receptor. Kind of test: κ-opioid receptor [35S]GTPγS functional assay, HEK-293 or CHO cells. It counts as biochemical. How it is done:
as §1
κ GTP EC50 is the concentration of a compound providing 50% of the maximal response for the compound at a κ receptor. […]
In TABLE 4, activity response of certain Compounds of the Invention to the μ- and κ-opioid receptors was determined as described above for functional assays using HEK-293 or CHO cells.

Test [5] deals with T2, κ-opioid receptor. Nature of the test: κ-opioid receptor radioligand dose-displacement binding assay ([3H]-U69,593). Conditions: binding affinity, HEK-293 or CHO cells. As for the experimental part:
Membranes from recombinant HEK-293 cells, CHO or U-2 OS cells expressing the recombinant human κ opioid receptor (κ) were prepared by lysing cells in ice cold hypotonic buffer (2.5 mM MgCl2, 50 mM HEPES, pH 7.4) (10 mL/10 cm dish) followed by homogenization with a tissue grinder/Teflon pestle. Membranes from a cell line naturally expressing kappa opioid receptors can also be used. Membranes were collected by centrifugation at 30,000×g for 15 min at 4° C. and pellets were resuspended in hypotonic buffer to a final concentration of 1-3 mg/mL. Protein concentrations were determined using the BioRad protein assay reagent with bovine serum albumen as standard. Aliquots of κ receptor membranes were stored at −80° C.
Radioligand dose displacement assays used 0.4 nM [^3H]-U69,593 (GE Healthcare, Piscataway, N.J.; 40 Ci/mmole) with 15 μg membrane protein (recombinant K opioid receptor expressed in HEK 293 cells; in-house prep) in a final volume of 200 μl binding buffer (5% DMSO, 50 mM Trizma base, pH 7.4). Non-specific binding was determined in the presence of 10 μM unlabeled naloxone or U69,593. All reactions were performed in 96-well polypropylene plates for 1 hr at a temperature of about 25° C. Binding reactions were terminated by rapid filtration onto 96-well Unifilter GF/C filter plates (Perkin Elmer, Shelton, Conn.) presoaked in 0.5% polyethylenimine (Sigma). Harvesting was performed using a 96-well tissue harvester (Perkin Elmer, Shelton, Conn.) followed by five filtration washes with 200 μl ice-cold binding buffer. Filter plates were subsequently dried at 50° C. for 1-2 hours. Fifty μl/well scintillation cocktail (Perkin Elmer, Shelton, Conn.) was added and plates were counted in a Packard Top-Count for 1 min/well.
In TABLE 3, binding affinity of certain Compounds of the Invention to the ORL-1, μ-, and κ-opioid receptors was determined as described above in HEK-293 or CHO cells.

Some results are limits rather than exact numbers.

Regarding `CN1CC[C@@]2(C)c3cc(O)ccc3C[C@@H]1[C@H]2NCCC1(O)CCCCC1` [Compound 12, (2R,6S,11S)-11-((2-(1-hydroxycyclohexyl)ethyl)amino)-3,6-dimethyl-1,2,3,4,5,6-hexahydro-2,6-methano-benzo[d]azocin-8-ol], the EC50 on μ-opioid receptor [1] was 223 ± 29.8 nM; at κ-opioid receptor [2], 137 ± 20.1 nM; at μ-opioid receptor [3] it was 33.6 ± 1.43 nM. The Emax on μ-opioid receptor [1] worked out at 47.7 ± 4.84%; on κ-opioid receptor [2], 54 ± 5.92%; on μ-opioid receptor [3], 100 ± 1.67%.

For `CN1CC[C@@]2(C)c3cc(O)ccc3C[C@@H]1[C@@H]2NCCc1ccc(S(C)(=O)=O)cc1` [Compound 10, (2R,6S,11R)-3,6-dimethyl-11-((4-(methylsulfonyl)phenethyl)amino)-1,2,3,4,5,6-hexahydro-2,6-methanobenzo[d]azocin-8-ol], the EC50 on μ-opioid receptor [1] is 225 ± 60.8 nM; on κ-opioid receptor [4] (bound given in uM), more than 20 µM. The Emax at μ-opioid receptor [1] came out at 38.5 ± 2.33%; at κ-opioid receptor [4] (relative to U69,593) it was 1%. Further, at κ-opioid receptor [5], affinity was put at a Ki of 0.301 ± 0.00979 µM.

Regarding `CC(C)S(=O)(=O)N1CCC(CN(C)[C@H]2[C@H]3Cc4ccc(O)cc4[C@]2(C)CCN3C)CC1` [Compound 55, (2R,6S,11R)-11-(((1-(isopropylsulfonyl)piperidin-4-yl)methyl)(methyl)amino)-3,6-dimethyl-1,2,3,4,5,6-hexahydro-2,6-methanobenzo[d]azocin-8-ol], on μ-opioid receptor [1], the EC50 turned out to be 3.28 ± 0.39 nM and the Emax came to 52 ± 4.85%. Also, the Ki on κ-opioid receptor [5] (bound given in uM) is more than 20 µM.

As for `CN1CC[C@@]2(C)c3cc(O)ccc3C[C@@H]1[C@@H]2N(C)CC1CCN(CC(C)(C)O)CC1` [Compound 97, (2R,6S,11R)-11-(((1-(2-hydroxy-2-methylpropyl)piperidin-4-yl)methyl)(methyl)amino)-3,6-dimethyl-1,2,3,4,5,6-hexahydro-2,6-methanobenzo[d]azocin-8-ol], on μ-opioid receptor [1], the EC50 is 22.6 ± 2.34 nM and the Emax turned out to be 47 ± 1.53%. On κ-opioid receptor [5], this molecule registered a Ki of 0.00212 ± 0.00055 µM.

At κ-opioid receptor [2], `CN1CC[C@@]2(C)c3cc(O)ccc3C[C@@H]1[C@@H]2N(C)CC(=O)Nc1nc2ccc(F)cc2s1` [Compound 40, N-(6-fluorobenzo[d]thiazol-2-yl)-2-(((2R,6S,11R)-8-hydroxy-3,6-dimethyl-1,2,3,4,5,6-hexahydro-2,6-methanobenzo[d]azocin-11-yl)(methyl)amino)acetamide] had an EC50 of 10900 ± 1410 nM and an Emax of 45.2 ± 4.82%. On μ-opioid receptor [3], a half-maximal response (EC50) required 539 ± 62.8 nM and the Emax amounted to 18.7 ± 0.67%.

Turning to `CN1CC[C@@]2(C)c3cc(O)ccc3C[C@@H]1[C@@H]2N(C)C(=O)CC(=O)Nc1ccc(F)cc1F` [Compound 26, N^1-(2,4-difluorophenyl)-N^3—((2R,6S,11R)-8-hydroxy-3,6-dimethyl-1,2,3,4,5,6-hexahydro-2,6-methanobenzo[d]azocin-11-yl)-N^3-methylmalonamide], the EC50 at μ-opioid receptor [1] is 3.97 ± 0.25 nM; at κ-opioid receptor [2], 54.3 ± 9.45 nM; at μ-opioid receptor [3], 0.33 ± 0.025 nM. Also, the Emax on μ-opioid receptor [1] turned out to be 76.7 ± 2.73%; on κ-opioid receptor [2], 81.7 ± 10.7%; on μ-opioid receptor [3], 107 ± 3.06%.

The term EC50 denotes the concentration needed to bring the measured effect to its halfway point. In general, Emax refers to the greatest response seen or fitted, relative to the assay's reference. By Ki is commonly meant a dissociation constant, usually derived from enzyme kinetics or from competition with a known ligand. High values mean lower affinity, low ones higher affinity.
